# Activity calls are given as the source filed them. The calls are words filed in the database; no cut-off is given here.
# Tests used:
# PC-12 [1] = assay: Neuroprotective activity against serum deprivation-induced cell death in rat PC12 cells assessed as cell survival at 25 uM after 48 hrs by MTT assay relative to control; assay type: functional; conditions: PC-12, 48 h, read-out: Survival
# PC-12 [2] = assay: Potentiation of NGF-induced neuronal differentiation in rat PC12 cells assessed as increase in number of neurites at 25 uM after 8 days by phase contrast micoscopy; assay type: functional, cell-based
# PC-12 [3] = assay: Potentiation of NGF-induced neuronal differentiation in rat PC12 cells assessed as increase in number of neurites longer than 100 umeter at 25 uM after 8 days by phase contrast micoscopy; assay type: functional, cell-based
# PC-12 [4] = assay: Potentiation of NGF-induced neuronal differentiation in rat PC12 cells assessed as increase in number of neurites at 1 uM after 8 days by phase contrast micoscopy; assay type: functional, cell-based
# PC-12 [5] = assay: Neuroprotective activity against serum deprivation-induced cell death in rat PC12 cells assessed as increase in cell survival at 25 uM after 48 hrs in presence of TrkA inhibitor K252a by MTT assay; assay type: functional, cell-based
# PC-12 [6] = assay: Induction of neurite outgrowth in rat PC12 cells assessed as increase in total number of neurites at 5 to 25 uM after 8 days by phase contrast micoscopy; assay type: functional, cell-based
# PC-12 [7] = assay: Potentiation of NGF-induced neuronal differentiation in rat PC12 cells assessed as increase in number of neurites at 5 uM after 8 days by phase contrast micoscopy; assay type: functional, cell-based
# PC-12 [8] = assay: Potentiation of NGF-induced neuronal differentiation in rat PC12 cells assessed as increase in number of neurites longer than 100 umeter at 5 uM after 8 days by phase contrast micoscopy; assay type: functional, cell-based
# [9] = target: High affinity nerve growth factor receptor (Rattus norvegicus) (UniProt P35739); assay: Activation of TrkA in rat PC12 cells assessed as increase in phospho-TrkA levels at 5 to 25 uM after 60 mins by Western blot method; assay type: cell-based
# [10] = target: High affinity nerve growth factor receptor (Rattus norvegicus) (UniProt P35739); assay: Potentiation of NGF-induced TrkA phosphorylation in rat PC12 cells at 5 to 25 uM after 60 mins by Western blot method; assay type: cell-based
# [11] = target: T1, Mitogen-activated protein kinase 1 and 3 (ERK2 and ERK1) (Rattus norvegicus) (UniProt P63086+P21708); assay: Increase in ERK1/2 phosphorylation in rat PC12 cells after 2 hrs by immunoblotting method; assay type: cell-based
# [12] = target: RAC-alpha serine/threonine-protein kinase (Rattus norvegicus) (UniProt P47196); assay: Increase in AKT phosphorylation in rat PC12 cells at 5 to 25 uM after 2 hrs by immunoblotting method; assay type: cell-based
# [13] = target: RAC-alpha serine/threonine-protein kinase (Rattus norvegicus) (UniProt P47196); assay: Increase in NGF-induced AKT phosphorylation in rat PC12 cells at 5 to 25 uM after 2 hrs by immunoblotting method; assay type: cell-based
# [14] = target: T1, Mitogen-activated protein kinase 1 and 3 (ERK2 and ERK1) (Rattus norvegicus); assay: Increase in NGF-induced ERK1/2 phosphorylation in rat PC12 cells at 5 to 25 uM after 2 hrs by immunoblotting method; assay type: cell-based
# PC-12 [15] = assay: Potentiation of NGF-induced neuronal differentiation in rat PC12 cells assessed as increase in number of neurites after 8 days by phase contrast micoscopy; assay type: functional, cell-based
# RAC-alpha serine/threonine-protein kinase (Rattus norvegicus), sequence (P47196 whole entry): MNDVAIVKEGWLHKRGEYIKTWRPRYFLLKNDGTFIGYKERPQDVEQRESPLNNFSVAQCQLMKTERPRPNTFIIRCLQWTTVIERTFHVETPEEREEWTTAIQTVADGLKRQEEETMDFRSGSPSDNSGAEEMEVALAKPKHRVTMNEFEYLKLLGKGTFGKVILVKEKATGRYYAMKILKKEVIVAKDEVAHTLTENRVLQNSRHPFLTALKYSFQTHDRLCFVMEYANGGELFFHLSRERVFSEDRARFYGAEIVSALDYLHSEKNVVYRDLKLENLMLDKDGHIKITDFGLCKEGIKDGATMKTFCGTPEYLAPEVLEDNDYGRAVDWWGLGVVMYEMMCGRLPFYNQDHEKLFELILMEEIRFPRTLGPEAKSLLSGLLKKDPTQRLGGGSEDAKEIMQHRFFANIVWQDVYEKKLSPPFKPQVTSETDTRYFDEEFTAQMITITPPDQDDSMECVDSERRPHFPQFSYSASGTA
# T1 sequence (P21708 whole entry, looked up): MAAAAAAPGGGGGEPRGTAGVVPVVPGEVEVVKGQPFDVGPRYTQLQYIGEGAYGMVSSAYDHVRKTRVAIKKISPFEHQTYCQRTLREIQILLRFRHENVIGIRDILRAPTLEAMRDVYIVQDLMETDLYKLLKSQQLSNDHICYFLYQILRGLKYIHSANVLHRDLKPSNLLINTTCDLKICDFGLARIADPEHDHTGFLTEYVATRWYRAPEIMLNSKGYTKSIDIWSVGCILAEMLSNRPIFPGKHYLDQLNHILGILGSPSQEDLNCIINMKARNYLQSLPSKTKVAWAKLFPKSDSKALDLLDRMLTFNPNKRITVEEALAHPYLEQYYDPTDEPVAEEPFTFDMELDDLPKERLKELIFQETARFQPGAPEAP
# T1 sequence (P63086 whole entry, looked up): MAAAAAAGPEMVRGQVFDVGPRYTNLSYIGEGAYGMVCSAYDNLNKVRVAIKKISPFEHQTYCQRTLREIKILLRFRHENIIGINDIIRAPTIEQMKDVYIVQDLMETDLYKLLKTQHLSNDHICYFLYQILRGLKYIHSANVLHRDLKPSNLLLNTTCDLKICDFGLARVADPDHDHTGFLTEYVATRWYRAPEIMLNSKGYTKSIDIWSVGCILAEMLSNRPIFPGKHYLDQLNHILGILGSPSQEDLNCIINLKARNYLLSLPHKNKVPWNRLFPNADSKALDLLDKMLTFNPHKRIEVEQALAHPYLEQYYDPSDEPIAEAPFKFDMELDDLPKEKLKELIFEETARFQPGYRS
# High affinity nerve growth factor receptor (Rattus norvegicus), sequence (P35739 whole entry): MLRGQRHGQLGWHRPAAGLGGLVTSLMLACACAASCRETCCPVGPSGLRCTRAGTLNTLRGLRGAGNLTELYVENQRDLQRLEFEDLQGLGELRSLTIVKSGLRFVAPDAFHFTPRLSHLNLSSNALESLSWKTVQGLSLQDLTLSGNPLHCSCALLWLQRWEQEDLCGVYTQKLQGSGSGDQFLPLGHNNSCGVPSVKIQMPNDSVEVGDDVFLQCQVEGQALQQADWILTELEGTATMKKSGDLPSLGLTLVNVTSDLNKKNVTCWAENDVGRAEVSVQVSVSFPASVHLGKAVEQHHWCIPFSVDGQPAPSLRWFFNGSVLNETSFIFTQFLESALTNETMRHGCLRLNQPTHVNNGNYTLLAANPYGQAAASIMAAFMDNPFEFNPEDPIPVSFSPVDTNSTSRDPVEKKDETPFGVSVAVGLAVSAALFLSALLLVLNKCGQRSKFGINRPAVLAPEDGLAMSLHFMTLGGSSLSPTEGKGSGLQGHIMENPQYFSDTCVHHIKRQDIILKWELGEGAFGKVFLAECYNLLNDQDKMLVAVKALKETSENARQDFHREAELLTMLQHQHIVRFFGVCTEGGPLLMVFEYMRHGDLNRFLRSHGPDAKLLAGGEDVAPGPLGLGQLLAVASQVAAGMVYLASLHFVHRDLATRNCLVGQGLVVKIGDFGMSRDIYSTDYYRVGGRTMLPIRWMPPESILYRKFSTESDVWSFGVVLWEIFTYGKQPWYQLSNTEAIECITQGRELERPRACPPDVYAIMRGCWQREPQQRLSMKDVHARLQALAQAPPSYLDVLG
smiles,measurement,setting,value
CCCNC(=O)/C=C/c1ccc(O)c(O)c1,viability at 25 µM,PC-12 [1],158%
same,Activity,PC-12 [2],Active
same,Activity,PC-12 [3],Active
same,Activity,PC-12 [4],inactive
same,Activity,PC-12 [5],inactive
same,Activity,PC-12 [6],inactive
CCCCNC(=O)/C=C/c1ccc(O)c(O)c1,viability at 25 µM,PC-12 [1],202%
same,Activity,PC-12 [7],Active
same,Activity,PC-12 [2],Active
same,Activity,PC-12 [8],Active
same,Activity,PC-12 [3],Active
same,Activity,PC-12 [4],inactive
same,Activity,PC-12 [5],inactive
same,Activity,[9],inactive
same,Activity,[10],inactive
same,Activity,[11],Dose-dependent effect
same,Activity,[12],inactive
same,Activity,PC-12 [6],inactive
same,Activity,[13],inactive
same,Activity,[14],Active
CCCCCCCCNC(=O)/C=C/c1ccc(O)c(O)c1,viability at 25 µM,PC-12 [1],158%
same,Activity,PC-12 [7],Active
same,Activity,PC-12 [2],Active
same,Activity,PC-12 [8],Active
same,Activity,PC-12 [3],Active
same,Activity,PC-12 [4],inactive
same,Activity,PC-12 [5],inactive
same,Activity,PC-12 [6],inactive
CCCCCCNC(=O)/C=C/c1ccc(O)c(O)c1 [CAFFEOYLHEXYLAMIDE],viability at 25 µM,PC-12 [1],183%
same,Activity,PC-12 [7],Active
same,Activity,PC-12 [2],Active
same,Activity,PC-12 [8],Active
same,Activity,PC-12 [3],Active
same,Activity,PC-12 [4],inactive
same,Activity,PC-12 [5],inactive
same,Activity,PC-12 [6],inactive
CCCCCCCCCCNC(=O)/C=C/c1ccc(O)c(O)c1,viability at 25 µM,PC-12 [1],193%
same,Activity,PC-12 [15],inactive
same,Activity,PC-12 [5],inactive
CCCCCCCCCCCCNC(=O)/C=C/c1ccc(O)c(O)c1,viability at 25 µM,PC-12 [1],230%
same,Activity,PC-12 [15],inactive
same,Activity,PC-12 [5],inactive
same,Activity,[9],inactive
same,Activity,[10],inactive
same,Activity,[11],Dose-dependent effect
same,Activity,[12],Active
same,Activity,[13],inactive
same,Activity,[14],Active
